The results in this text go back to BindingDB's records for doi:10.1021/acs.jmedchem.8b01497 ("Sapienza" Universit&#163, 2018).

pIC50: −log10 of the molar value.

As a reminder, the pIC50 is −log10 of the IC50, conventionally taken in molar units.

The test deals with T1, Heparanase (Homo sapiens, UniProt Q9Y251).
T1 sequence (Q9Y251 whole entry): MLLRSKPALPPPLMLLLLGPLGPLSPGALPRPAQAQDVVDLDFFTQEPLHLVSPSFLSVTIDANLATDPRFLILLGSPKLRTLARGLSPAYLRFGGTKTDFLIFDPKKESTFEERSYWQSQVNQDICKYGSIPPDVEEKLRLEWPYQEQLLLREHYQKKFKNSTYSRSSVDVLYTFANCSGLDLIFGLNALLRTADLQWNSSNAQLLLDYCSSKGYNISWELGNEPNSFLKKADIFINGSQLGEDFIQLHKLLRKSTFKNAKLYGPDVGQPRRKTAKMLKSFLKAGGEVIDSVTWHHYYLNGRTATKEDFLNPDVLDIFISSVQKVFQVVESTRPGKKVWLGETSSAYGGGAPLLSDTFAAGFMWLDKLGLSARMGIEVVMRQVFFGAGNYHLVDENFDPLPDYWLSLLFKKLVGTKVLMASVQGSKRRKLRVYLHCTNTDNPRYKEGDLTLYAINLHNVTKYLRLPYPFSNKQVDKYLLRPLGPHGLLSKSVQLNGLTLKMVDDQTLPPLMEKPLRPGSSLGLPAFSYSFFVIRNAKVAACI
Put plainly: Inhibition of recombinant HPSE (unknown origin) using fondaparinux as substrate incubated for 3 hrs in absence of light by WST1 assay. (Formazan colour is commonly taken as a measure of viable cells.)

As to `CC(=O)N[C@H]1[C@@H](O[C@@H](CO)C(O[C@H](O)CO)C(=O)O)O[C@H](CO)[C@@H](O[C@@H]2OC(C(=O)O)[C@@H](O[C@H]3O[C@H](CO)[C@@H](O)[C@H](O)[C@H]3NC(C)=O)[C@H](O)[C@H]2OS(=O)(=O)O)[C@@H]1O` (stereo partly specified), the pIC50 was 8.30.
